The source of these data is patent US20240051958A1, “DIACYLGLYCEROL KINASE (DGK) ALPHA INHIBITORS AND USES THEREOF” (priority 2022, published 2024).

In assay [1] the target is DGKA (Homo sapiens (Human), UniProt P23743). Description: DGKA Inhibition ADP-Glo Assay. Format: biochemical. To be noted: 40 μM ATP, 200 μM DLG in substrate working solution, 25° C., 60 min. The method, then: The DGKA inhibition reactions were performed using ADP-Glo assay. The reactions were carried out in 50 mM HEPES, 100 mM NaCl, 10 mM MgCl2, 1 mM CaCl2, 0.005% TritonX-100 and 1 mM DTT as working solution (pH=7.5). 30 nL DMSO solution of each test compound (Top concentration 0.4 μM with 10 point, 4-fold dilution series for each compound) were transferred to 384 well plate by Echo and 5 μL DGKA (SignalChem, D21-10BG) enzyme working solution at 2×final reaction concentration was added to each well. After incubated at 25° C. for 15 minutes, 5 μL substrate working solution contain 40 μM ATP (Promega, V915B) and 200 μM DLG (SignalChem, D430-59) were added to initiate reaction. After enzymatic reaction at 25° C. for 60 min, ADP Glo assay reagents (Promega, V9102) were added and luminescence was recorded using an EnVision following the instruction of manual. […] The IC50 value was calculated via a regression analysis of the inhibition rate.
Sequence of DGKA (P23743 whole entry): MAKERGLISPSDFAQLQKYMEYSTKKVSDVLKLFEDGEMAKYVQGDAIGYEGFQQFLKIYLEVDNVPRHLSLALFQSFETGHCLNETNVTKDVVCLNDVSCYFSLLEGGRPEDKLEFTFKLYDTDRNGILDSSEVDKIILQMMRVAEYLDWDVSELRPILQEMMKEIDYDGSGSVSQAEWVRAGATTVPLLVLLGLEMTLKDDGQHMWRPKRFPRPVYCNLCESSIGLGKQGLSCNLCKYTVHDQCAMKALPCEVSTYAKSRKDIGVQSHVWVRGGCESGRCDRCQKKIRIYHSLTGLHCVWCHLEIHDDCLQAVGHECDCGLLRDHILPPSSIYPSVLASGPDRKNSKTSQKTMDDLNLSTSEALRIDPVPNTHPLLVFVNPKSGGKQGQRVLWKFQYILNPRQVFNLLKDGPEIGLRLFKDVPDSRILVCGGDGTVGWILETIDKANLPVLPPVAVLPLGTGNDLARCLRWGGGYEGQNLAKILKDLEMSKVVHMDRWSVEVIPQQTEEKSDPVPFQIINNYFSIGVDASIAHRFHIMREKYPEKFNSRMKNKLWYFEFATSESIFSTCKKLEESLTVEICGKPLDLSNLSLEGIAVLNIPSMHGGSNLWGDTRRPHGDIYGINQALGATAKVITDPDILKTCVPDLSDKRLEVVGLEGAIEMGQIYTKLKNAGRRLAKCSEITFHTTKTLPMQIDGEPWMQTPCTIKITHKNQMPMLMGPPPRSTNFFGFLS
(In general: ADP-Glo first removes unused ATP, then detects ADP through luciferase.)

Assay [2] relates to Human Pan T cells. Put plainly: IL-2 Release Detection Assay. Format: cell-based. The note with it: for Activation fold: Top activation/DMSO control; for Activation % at 100 nM: fitted curve at 100 nM/DMSO control*100%. The protocol:
Add dilutions of compounds into the cells and incubate at 37° C. &5% CO2 for 24 hours. IL-2 in cell supernatant was detected by ELISA Kit (R&D, DY202). […] Top and Bottom: Plateaus in same units as Y. LogEC50: same log units as X. Activation fold: Top activation/DMSO control. Activation % at 100 nM: Activation of non-linear regression equation curve at the concentration of 100 nM/DMSO control*100%.

The compound `Cc1ccc2oc(N3CC=C(c4cc(=O)n(C)c5cc(OCCO)c(C#N)nc45)CC3)nc2c1` [Example 30, 3-(2-hydroxyethoxy)-5-methyl-8-(1-(5-methylbenzo[d]oxazol-2-yl)-1,2,3,6-tetrahydropyridin-4-yl)-6-oxo-5,6-dihydro-1,5-naphthyridine-2-carbonitrile] displayed an IC50 in assay [1] of 0.65 nM. In addition, in assay [2], the Activation fold is given as 11.0 and the “Activation % at 100 nM” value was found to be 244%.

In turn, `Cc1ccc2oc(C3CCN(c4cc(=O)n(C)c5ccc(F)cc45)CC3)nc2c1` [Example 6, 6-fluoro-1-methyl-4-(4-(5-methylbenzo[d]oxazol-2-yl)piperidin-1-yl)quinolin-2(1H)-one] returned an IC50 in assay [1] of 1.23 nM.

On to `Cc1ccc2oc(C3CCN(c4nc(=O)n(C)c5ccc(Cl)cc45)CC3)nc2c1` [Example 4, 6-chloro-1-methyl-4-(4-(5-methylbenzo[d]oxazol-2-yl)piperidin-1-yl)quinazolin-2(1H)-one], for which the IC50 in assay [1] amounted to 4.43 nM. Moreover, in assay [2], the Activation fold came to 3.5 and the “Activation % at 100 nM” value is 211%.

Compound `Cn1c(=O)cc(N2CCC(c3nc4cc(F)ccc4o3)CC2)c2nc(Cl)ccc21` [Example 11, 6-chloro-4-(4-(5-fluorobenzo[d]oxazol-2-yl)piperidin-1-yl)-1-methyl-1,5-naphthyridin-2(1H)-one] yielded a 50% inhibitory concentration (IC50) in assay [1] of 0.66 nM. Moreover, in assay [2], the Activation fold worked out at 6.1 and the “Activation % at 100 nM” value worked out at 169%.

With `Cc1ccc2oc(C3CCN(c4cc(=O)n(C)c5cc(OCCO)c(Cl)nc45)CC3)nc2c1` [Example 22, 6-chloro-7-(2-hydroxyethoxy)-1-methyl-4-(4-(5-methylbenzo[d]oxazol-2-yl)piperidin-1-yl)-1,5-naphthyridin-2(1H)-one], in assay [1], the IC50 stood at 0.15 nM. This lies in the sub-nanomolar range.

With `Cc1ccc2oc(C3CCN(c4cc(=O)n(C)c5cc(OC6CCOC6)c(Cl)nc45)CC3)nc2c1` (stereo not drawn) [Example 20, 6-chloro-1-methyl-4-(4-(5-methylbenzo[d]oxazol-2-yl)piperidin-1-yl)-7-((tetrahydrofuran-3-yl)oxy)-1,5-naphthyridin-2(1H)-one], in assay [1], inhibition was half-maximal at 0.13 nM (IC50).

As for `Cc1ccc2oc(C3CCN(c4cc(=O)n(C)c5cc(NCCO)cnc45)CC3)nc2c1` [Example 19, 7-((2-hydroxyethyl)amino)-1-methyl-4-(4-(5-methylbenzo[d]oxazol-2-yl)piperidin-1-yl)-1,5-naphthyridin-2(1H)-one], 2.36 nM corresponded to half-maximal inhibition in assay [1] (IC50).

As to `Cc1ccc2oc(C3CCN(c4c(C#N)c(=O)n(C)c5ccc(Cl)nc45)CC3)nc2c1` [Example 9, 6-chloro-1-methyl-4-(4-(5-methylbenzo[d]oxazol-2-yl)piperidin-1-yl)-2-oxo-1,2-dihydro-1,5-naphthyridine-3-carbonitrile], the IC50 in assay [1] came to 2.04 nM. Further, in assay [2], the Activation fold came out at 7.7 and the “Activation % at 100 nM” value stood at 206%.

Regarding `Cc1ccc2oc(C3CCN(c4nc(=O)n(C)c5ccc(C#N)cc45)CC3)nc2c1` [Example 5, 1-methyl-4-(4-(5-methylbenzo[d]oxazol-2-yl)piperidin-1-yl)-2-oxo-1,2-dihydroquinazoline-6-carbonitrile], in assay [1], the IC50 stood at 103 nM. In other words, the sub-micromolar range.

`Cc1ccc2oc(C3CCN(c4cc(=O)n(C)c5cc(NCCO)c(C#N)nc45)CC3)nc2c1` [Example 18, 3-((2-hydroxyethyl)amino)-5-methyl-8-(4-(5-methylbenzo[d]oxazol-2-yl)piperidin-1-yl)-6-oxo-5,6-dihydro-1,5-naphthyridine-2-carbonitrile] had an IC50 in assay [1] of 0.1 nM. For the same compound, in assay [2], the Activation fold is 6.9 and the “Activation % at 100 nM” value is recorded as 355%.

Regarding `Cc1ccc2oc(C3CCN(c4cc(=O)n(C)c5cc(OCCCO)c(C#N)nc45)CC3)nc2c1` [Example 24, 3-(3-hydroxypropoxy)-5-methyl-8-(4-(5-methylbenzo[d]oxazol-2-yl)piperidin-1-yl)-6-oxo-5,6-dihydro-1,5-naphthyridine-2-carbonitrile], the IC50 in assay [1] amounted to 0.31 nM. Moreover, in assay [2], the Activation fold amounted to 25.6 and the “Activation % at 100 nM” value came to 679%.

`Cc1ccc2oc(C3CCN(c4cc(=O)n(C)c5cc(NCCO)c(Cl)nc45)CC3)nc2c1` [Example 17, 6-chloro-7-((2-hydroxyethyl)amino)-1-methyl-4-(4-(5-methylbenzo[d]oxazol-2-yl)piperidin-1-yl)-1,5-naphthyridin-2(1H)-one] returned an IC50 in assay [1] of 0.12 nM. For the same compound, in assay [2], the Activation fold is on record as 8.2 and the “Activation % at 100 nM” value was 159%.

In assay [1], `Cc1ccc2oc(N3[C@@H]4CC[C@H]3CN(c3c(C#N)c(=O)n(C)c5ccc(F)cc35)C4)nc2c1` [Example 8, 6-fluoro-1-methyl-4-((1R,5S)-8-(5-methylbenzo[d]oxazol-2-yl)-3,8-diazabicyclo[3.2.1]octan-3-yl)-2-oxo-1,2-dihydroquinoline-3-carbonitrile] yielded a half-inhibitory concentration (IC50) of 7.74 nM.

`Cc1ccc2oc(C3CCN(c4cc(=O)n(C)c5cc(OCCN)c(C#N)nc45)CC3)nc2c1` [Example 26, 3-(2-aminoethoxy)-5-methyl-8-(4-(5-methylbenzo[d]oxazol-2-yl)piperidin-1-yl)-6-oxo-5,6-dihydro-1,5-naphthyridine-2-carbonitrile] yielded an IC50 in assay [1] of 3.34 nM.

With `Cc1ccc2oc(C3CCN(c4cc(=O)n(C)c5cc(OC6CCNC6)c(C#N)nc45)CC3)nc2c1` (stereo not drawn) [Example 27, 5-methyl-8-(4-(5-methylbenzo[d]oxazol-2-yl)piperidin-1-yl)-6-oxo-3-(pyrrolidin-3-yloxy)-5,6-dihydro-1,5-naphthyridine-2-carbonitrile], the IC50 in assay [1] was 13.6 nM.

`Cc1ccc2oc(C3CCN(c4cc(=O)n(C)c5ccc(C#N)cc45)CC3)nc2c1` [Example 3, 1-methyl-4-(4-(5-methylbenzo[d]oxazol-2-yl)piperidin-1-yl)-2-oxo-1,2-dihydroquinoline-6-carbonitrile] had an IC50 in assay [1] of 2.35 nM. In assay [2], the Activation fold is listed as 7.8 and the “Activation % at 100 nM” value turned out to be 370%.

In turn, `COCCOc1cc2c(nc1Cl)c(N1CCC(c3nc4cc(C)ccc4o3)CC1)cc(=O)n2C` [Example 15, 6-chloro-7-(2-methoxyethoxy)-1-methyl-4-(4-(5-methylbenzo[d]oxazol-2-yl)piperidin-1-yl)-1,5-naphthyridin-2(1H)-one] gave an IC50 in assay [1] of 0.19 nM. Further, in assay [2], the Activation fold is given as 6.5 and the “Activation % at 100 nM” value is listed as 214%.

In the case of `Cc1ccc2oc(C3CCN(c4cc(=O)n(C)c5cc(OC6CCOC6)c(C#N)nc45)CC3)nc2c1` (stereo not drawn) [Example 21, 5-methyl-8-(4-(5-methylbenzo[d]oxazol-2-yl)piperidin-1-yl)-6-oxo-3-((tetrahydrofuran-3-yl)oxy)-5,6-dihydro-1,5-naphthyridine-2-carbonitrile], it took 0.23 nM to reach half-maximal inhibition in assay [1] (IC50). In assay [2], the Activation fold stood at 10.1 and the “Activation % at 100 nM” value was 520%.

Consider `COCCOc1cc2c(nc1C#N)c(N1CCC(c3nc4cc(C)ccc4o3)CC1)cc(=O)n2C` [Example 16, 3-(2-methoxyethoxy)-5-methyl-8-(4-(5-methylbenzo[d]oxazol-2-yl)piperidin-1-yl)-6-oxo-5,6-dihydro-1,5-naphthyridine-2-carbonitrile], for which the midpoint of inhibition in assay [1], the IC50, lay at 0.35 nM. In assay [2], the Activation fold was found to be 6.29 and the “Activation % at 100 nM” value is 253%.

Compound `Cc1ccc2oc(C3CCN(c4cc(=O)n(C)c5ccc(Cl)cc45)CC3)nc2c1` [Example 2, 6-chloro-1-methyl-4-(4-(5-methylbenzo[d]oxazol-2-yl)piperidin-1-yl)quinolin-2(1H)-one] yielded an IC50 in assay [1] of 0.47 nM. Besides, in assay [2], the Activation fold was found to be 5.3 and the “Activation % at 100 nM” value is given as 234%.

In assay [1], `Cc1ccc2oc(C3CCN(c4nc(=O)n(C)c5ccc(F)cc45)CC3)nc2c1` [Example 7, 6-fluoro-1-methyl-4-(4-(5-methylbenzo[d]oxazol-2-yl)piperidin-1-yl)quinazolin-2(1H)-one] gave an IC50 of 16 nM.

With `Cc1ccc2oc(C3CCN(c4cc(=O)n(C)c5cc(OC6CCOCC6)c(C#N)nc45)CC3)nc2c1` [Example 25, 5-methyl-8-(4-(5-methylbenzo[d]oxazol-2-yl)piperidin-1-yl)-6-oxo-3-((tetrahydro-2H-pyran-4-yl)oxy)-5,6-dihydro-1,5-naphthyridine-2-carbonitrile], in assay [1], the IC50 was determined as 5.29 nM. This IC50 lies about 3-fold lower than the previous one.

In assay [1], `Cc1ccc2oc(C3CCN(c4nc(=O)n(C)c5ccc(C#N)nc45)CC3)nc2c1` [Example 14, 1-methyl-4-(4-(5-methylbenzo[d]oxazol-2-yl)piperidin-1-yl)-2-oxo-1,2-dihydropyrido[3,2-d]pyrimidine-6-carbonitrile] registered an IC50 of 143 nM.

Turning to `Cc1ccc2oc(C3CCN(c4nc(=O)n(C)c5ccc(Cl)nc45)CC3)nc2c1` [Example 13, 6-chloro-1-methyl-4-(4-(5-methylbenzo[d]oxazol-2-yl)piperidin-1-yl)pyrido[3,2-d]pyrimidin-2(1H)-one], the IC50 in assay [1] came to 4.11 nM.

For orientation: IC50 means the concentration that inhibits the measured activity by half.
